# Assay results reported in patent US7851142B2, “Method of reducing glycolysis in platelet concentrates using L-carnitine, alkanoyl carnitines and salts thereof” (priority 1997, dated 2010).
# Entries after “also recorded” stand apart in the source; their conditions may differ.
# Experiments:
# [1] = system: packed RBC (red cell concentrates); experiment: In vitro measurements on red cell concentrates stored in AS-3 with or without LC; format: cell-based, human; settings: AS-3 with 5 mM LC
# Method: Blood storage system. Standard CP2D/AS-3 system (Miles, Inc.) Using polyvinyl chloride (PVC) plastic with diethyl-(n)hexyl-phthalate (DEHP) as plasticizer was used. For each test unit, 245 mg LC (in 1.1 mL pure, pyrogen-free solution in a sterilized glass bottle) was added to the container holding the AS-3 additive solution to give a final concentration of 5 mM. For the control units, 1.1 mL 0.9% NaCl was added to the AS-3 solution using the same conditions. Addition of LC or saline to the bags was performed by injecting through a sampling site coupler with a syringe. This was done in a laminar flow hood under UV light.
# Donation & Processing. Standard phlebotomy and blood-drawing methods were used with collection of approximately 450±50 mL whole blood. The whole blood unit was held between 4-8 hours at room temperature before processing. The unit was centrifuged using standard conditions and, after centrifugation, the supernatant plasma was expressed off, and the sedimented packed RBC resuspended either in the standard AS-3 solution (control) or the carnitine-containing AS-3 solution (test). The suspended RBC units were stored at 4° C. for 42 days.
# In Vitro Measurements: Measurements performed on pre-(0 day) and post-(42-day) samples included RBC ATP levels; total and supernatant hemoglobin; hematocrit (Hct); RBC, WBC, and platelet counts; RBC osmotic fragility; RBC morphology; lactate and glucose levels; supernatant potassium levels. These were performed using standard procedures as described previously, Heaton et al., Vox Sang 57:37-42 (1989).
# Statistical analysis. Paired t-test or routine non-parametric statistical analysis was performed on data from the in vivo and in vitro testing of the units to determine if there were any statistically significant differences (1-tail) in the means between the test and control units. Statistical significance was considered at a p value less than 0.05.
# transfused stored RBC = experiment: In vivo post-transfusion measurements of 42-day stored RBC (51Cr/99Tc labeling); set-up: species or system human; settings: RBC stored 42 days with 5 mM LC, reinfused into donor
# Description: Subjects. The subject population was male or female research subjects between the ages of 18 to 65 years with no known mental or physical disability and taking no drugs that might affect RBC viability. Individuals were recruited who fulfilled the conventional allogeneic donor criteria as listed in the Code of Federal Register, Chapter 2, the Standards of the American Association of Blood Banks, and the Blood Services Directives of the American National Red Cross. The study was approved by the Institutional Review Board of the Medical College of Hampton Roads and the subjects gave informed consent prior to participation in the study.
# Each donor donated on two different occasions separated by 72 days, and was randomized to either the test or control arm on the first donation.
# In vivo Post-transfusion Measurements. After 42 days of storage, a sample was withdrawn and the stored cells labeled with Cr using standard methods. At the same time, to determine RBC mass, a fresh sample was collected from the donor for RBC labeling with 99 Tc. After labeling, 15 μCi ^51Cr-labeled stored cells and 15 μCi ^99Tc-labeled fresh cells were mixed and simultaneously infused. Blood samples (5 mL) were taken after the infusion at various time intervals for up to 35 days to calculate 24-hour % recovery and survival. The 24-hour % recovery was determined using either the single label method where log-linear regression of the radioactivity levels of samples taken at 5, 7.5, 10, and 15 min. was used to determine 0 time level, or by the double label method using donor RBC mass as determined by the ^99Tc measurement.
# Circulating lifespan of the transfused surviving Cr-labeled RBC was determined by samples taken at 24 hours and then twice weekly for up to 5 weeks. The radioactivity levels were corrected for a constant 1% elution per day. The data were fitted to a linear function with post-transfusion days as independent variable (x-axis) and the corrected Cr counts as dependent variable (y-axis). The lifespan of the RBC was then taken as the intersection of the fitted line with the x-axis. […]
# stored RBC = experiment: Membrane complex lipid reacylation in stored RBC ([1-14C]palmitic acid incorporation); format: cell-based, human
# Method: Analysis of membrane complex lipid reacylation in stored RBC. Blood sample was withdrawn from stored RCC unit through a sampling site coupler with a syringe, and the sample processed immediately. This was done in a laminar flow hood under UV light. All the manipulations were conducted at 0-5° C. unless noted. RBC were washed two times with 4 vol. of cold 0.9% NaCl. Isolated RBC were once again washed with incubation buffer (NaCl 120 mM, KCl 5 mM, MgSO4 1 mM, NaH2PO4 1 mM, saccharose 40 mM, 5 mM glucose, Tris-HCl 10 mM, at pH 7.4) and resuspended in the same buffer at a final hematocrit of 5%. A Rotabath shaking bath at 37° C. was used for the incubations. RBC were incubated with the radioactive palmitic acid (10 μM) complexed to fatty acid free BSA (1.65 mg/ml), Incubations were ended by washing cells once with cold incubation buffer, three times with fatty acid free BSA 1% in incubation buffer, and finally once again with incubation buffer. RBC lipids were extracted from intact cells with the Rose & Oaklander procedure, J. Lipid Res. 6: 428-431 (1965). In order to prevent lipid oxidation, 0.1% butylated hydroxytoluene was added to the lipid extracts. Aliquots of the lipid extract were used for determination of lipid phosphorus content, and analyzed by two dimensional thin layer chromatography. Briefly, the chromatograms were developed using chloroform-methanol-28% ammonia (65:25:5) in the first dimension. The chromatograms were then developed using chloroform-acetone-methanol-acetic acid-water (6:8:2:2:1) in the second dimension. Phosphatidylcholine (PC), a phosphatidylethanolamine (PE), and phosphatidylserine were visualized by brief exposure of the plates to iodine and identified using standards as a reference. Individual phospholipid spots were scraped off into vials containing scintillation fluid and radioactivity was determined by liquid scintillation counting. The identification and analysis of radioactive PLC was carried out as recently described, Arduini et al., J. Biol. Chem. 267: 12673-81 (1992). Counting efficiency was evaluated by an external standard. […]
# [2] = system: coagulase negative staphylococci; experiment: Bacterial growth in spiked extended-storage platelet concentrates; format: cell-based; settings: for Bacterial growth: platelet concentrate
# Method: Study Methods: Two ABO identical prestorage-leuko-reduced platelet concentrates produced by in line filtration of platelet rich plasma (MedSep Corp. Covina, Calif.) were pooled, then equally divided into two CLX® (MedSep) bags. Either LC, to a final concentration of 5 mM, or saline (control) was added to one of each pair. Each container was spiked with 1 ml of a coagulase negative staphylococcal suspension on Day 0 to a final concentration between 1-48 CFU/mL. Samples were removed from each container aseptically on Day 3, Day 6 and either Day 7 or Day 8 for colony count. Data were analyzed by paired t tests.
# [3] = system: prestorage-leuko-reduced platelet concentrates; experiment: Extended storage of prestorage-leuko-reduced random platelets (glycolysis and platelet quality tests); format: cell-based, human; settings: 5 mM L-Carnitine, stored seven or eight days at 22° C.
# Method: Study Deign: Two ABO identical prestorage-leuko-reduced platelet concentrates produced by in-line filtration of platelet rich plasma (MedSep Inc., Corvina, Calif.) were pooled, then equally divided into two CLX (MedSep) containers. Either L-Carnitine (final concentration 5 mM) or saline was added to one bag of each pair of platelets. Platelets were stored for either seven or eight days at 22° C. on a flatbed agitator, then tested. Tests performed were pH, platelet count, supernatant glucose and lactate, surface p-selectin expression by flow cytometry, extent of shape change (ESC) and hypotonic shock response (HSR). Glucose consumption and lactate production were calculated as mM/10^12 platelets/day. Data were analyzed using paired t-tests.
# [4] = system: standard (non-leuko-reduced) platelet concentrates; settings: extended storage (>5 days; five-ten days); cited from earlier work
smiles,measurement,setting,value
"C[N+](C)(C)C[C@H](O)CC(=O)[O-] [L-Carnitine, L-carnitine]",ATP,"[1]; post-storage, 42 days at 4° C.",3.24 ± 0.38 μmol/g Hb
same,Glucose,"[1]; post-storage, 42 days at 4° C.",193 ± 40 mg/dL
same,Hemolysis,"[1]; post-storage, 42 days at 4° C.",0.30 ± 0.22 %
same,Lactate,"[1]; post-storage, 42 days at 4° C.",199 ± 37 mg/dL
same,Morphological Score,"[1]; post-storage, 42 days at 4° C.",68 ± 15
same,Osmotic Fragility,"[1]; post-storage, 42 days at 4° C.",50 ± 4%
same,Supernatant K+,"[1]; post-storage, 42 days at 4° C.",60 ± 3 mEq/L
same,pH,"[1]; post-storage, 42 days at 4° C.",6.32 ± 0.04
same,ATP,[1]; pre-storage (0 day),4.3 ± 0.4 μmol/g Hb
same,Osmotic Fragility,[1]; pre-storage (0 day),49 ± 4%
same,Supernatant Hb,[1]; pre-storage (0 day),26 ± 8 mg/dL
same,Supernatant K+,[1]; pre-storage (0 day),2.2 ± 0.3 mEq/L
same,24 Hr % Recovery (single label),transfused stored RBC,84.0 ± 4.4%
same,24 Hr Recovery (double label),transfused stored RBC,83.9 ± 5.0
same,Survival (circulating lifespan of infused stored RBC),transfused stored RBC,96.1 ± 11.2 days
same,Radioactive palmitate incorporation into membrane PE,"stored RBC; RBC stored in LC-containing AS-3, over storage up to 42 days",sudden increase of PE reacylation toward the end of the storage
same,Radioactive palmitate incorporated into PLC (palmitoyl-L-carnitine),"stored RBC; RBC stored in LC-containing AS-3, over storage up to 42 days, listed as LC",initial increase (with a nadir at the 3 week) followed by a rapid decrease; also recorded: greater than that found in red cells stored without LC
same,Radioactive palmitate incorporation into membrane PC,"stored RBC; RBC stored in LC-containing AS-3 vs AS-3 alone, over storage",no differences were observed between the two red cell preparations
same,Bacterial growth,"[2]; Day 0, 5 mM L-Carnitine",1.12 ± 0.7 Log CFU/ml
same,Bacterial growth,"[2]; Day 3, 5 mM L-Carnitine",3.04 ± 0.7 Log CFU/ml
same,Bacterial growth,"[2]; Day 6, 5 mM L-Carnitine",3.88 ± 1.0 Log CFU/ml
same,Growth relative to controls,"[2]; Day 7/8, 5 mM L-Carnitine",33%
same,Bacterial growth,"[2]; Day 7/8, 5 mM L-Carnitine",4.60 ± 1.5 Log CFU/ml
same,ESC (extent of shape change),[3],12 ± 4%
same,Glucose concentration,[3],1.13 ± 0.2
same,HSR (hypotonic shock response),[3],50 ± 22%
same,Lactate production,[3],1.50 ± 0.2 mM/10^12 platelets/day
same,pH,[3],7.09 ± 0.1
same,P-selectin (% positive),[3]; flow cytometry,69 ± 9%
same,Effect on glycolysis in stored platelet concentrates,[4],reduces glycosis; also recorded: reduces glycolysis
